Here are results for one compound from paper PMC8086144, “A novel peptide antagonist of the human growth hormone receptor” (The Journal of Biological Chemistry, 2021).

For experiment [1], the target named is T1, hGHR (Homo sapiens, UniProt P10912).
T1 construct: previously reported to express high levels of endogenous hGHR; host or cells: SK-MEL-28, MALME-3M, IM9
T1 sequence (P10912 19-638): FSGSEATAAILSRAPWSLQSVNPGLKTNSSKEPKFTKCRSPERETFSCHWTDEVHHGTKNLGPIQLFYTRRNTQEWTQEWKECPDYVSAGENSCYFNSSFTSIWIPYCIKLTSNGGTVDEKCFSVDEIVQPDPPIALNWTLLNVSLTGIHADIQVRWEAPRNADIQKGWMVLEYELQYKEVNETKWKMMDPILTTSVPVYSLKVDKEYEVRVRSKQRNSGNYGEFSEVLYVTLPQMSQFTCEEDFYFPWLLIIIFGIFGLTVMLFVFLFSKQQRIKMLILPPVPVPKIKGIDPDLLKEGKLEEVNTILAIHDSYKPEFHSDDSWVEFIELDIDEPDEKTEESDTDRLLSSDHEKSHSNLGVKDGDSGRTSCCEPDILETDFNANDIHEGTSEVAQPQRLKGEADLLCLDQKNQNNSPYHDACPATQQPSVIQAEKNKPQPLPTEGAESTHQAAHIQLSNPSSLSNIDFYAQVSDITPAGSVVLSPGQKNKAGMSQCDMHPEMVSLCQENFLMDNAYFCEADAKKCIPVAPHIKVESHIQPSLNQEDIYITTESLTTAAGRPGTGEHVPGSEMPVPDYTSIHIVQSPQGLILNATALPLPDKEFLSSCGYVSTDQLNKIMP
The experiment can be described thus: hGH-mediated pSTAT5 in MALME-3M cells, Western blot. The format is cell-based. Conditions: 20 min. On the procedure:
SK-MEL-28, MALME-3M, and T84 cells were grown and maintained in Eagle's Minimal Essential Medium. IM9 and L cells were grown in RPMI-1640 media and Dulbecco's modified Eagle's medium, respectively. All growth media was supplemented with 10% fetal bovine serum and 1× antibiotic-antimycotic […] solution. Cells were grown at 37 °C under a 5% CO2 atmosphere in a humidified incubator, and growth media was replaced every 48 h during incubation. No hGH was present in or added to the growth media unless specifically indicated. […]
Following treatment, the cells were harvested at the indicated time points, and the total protein was extracted. […] Sample protein concentration was quantified using a Bradford assay with bovine serum albumin as the protein standard. Absorbance at 595 nm was measured using a Spectramax 250 multimode plate reader (Molecular Devices) and processed using SoftmaxPro v4.7.1 software.
Cytosolic fractions from treated cells were thawed on ice, and 80 μg protein was loaded onto polyacrylamide gels for separation by SDS-PAGE. […] Chemiluminescence signals were detected using a GelDoc (BioRad) fluorescence imager. […] Percent inhibition was then measured by subtracting the pSTAT5 band intensity in each lane from the pSTAT5 band intensity of hGH-treated samples. […]
Background: In western blotting, separated proteins are transferred to a membrane and probed.

Experiment [2] has as its target T1, hGHR. In words: hGH-mediated pSTAT5 in SK-MEL-28 cells, ELISA. It is filed as cell-based. To be noted: SK-MEL-28, 20 min, ELISA (pSTAT5A Y694/pSTAT5B Y699), SK-MEL-28 cells co-treated with hGH and 200 nM peptide, Equation 2, triplicate. Here is the method: SK-MEL-28, MALME-3M, and T84 cells were grown and maintained in Eagle's Minimal Essential Medium. IM9 and L cells were grown in RPMI-1640 media and Dulbecco's modified Eagle's medium, respectively. All growth media was supplemented with 10% fetal bovine serum and 1× antibiotic-antimycotic […] solution. Cells were grown at 37 °C under a 5% CO2 atmosphere in a humidified incubator, and growth media was replaced every 48 h during incubation. No hGH was present in or added to the growth media unless specifically indicated. Between 12 to 16 h after seeding, adherent cells (SK-MEL-28, MALME-3M, T84, L cells) were switched to serum-free growth media (no GH) and starved for 4 h before the addition of hGH, bGH (L cells), hPRL (MALME-3M and T84 cells), or buffer at the concentrations noted. Cells were then allowed to incubate for an additional 20 min before being harvested. For suspended cell treatments, IM9 cells were pelleted by centrifugation at 140g for 5 min at room temperature. The supernatant was then removed by aspiration, and the cells were resuspended in serum-free media. The cells were then starved for 4 h at 37 °C under a 5% CO2 atmosphere in a humidified incubator and subsequently treated with hGH, S1H, or both at the indicated concentrations for 20 min before harvesting by centrifugation.
Following treatment, the cells were harvested at the indicated time points, and the total protein was extracted. To affect protein extraction, the treatment media was removed by aspiration, and the cells were washed twice with ice-cold PBS. Following washing, total protein was extracted from the cells using RIPA buffer (100 μl/million cells) supplemented with 1.5× Halt protease and phosphatase inhibitor cocktail. Briefly, chilled RIPA buffer was added to the cells, and the lysis reaction was allowed to incubate for 5 min at 4 °C. Adherent cells were harvested for lysis using a sterile cell scraper. The resultant cell suspensions were sonicated on ice for 60 s with ON (2-s)/OFF (1-s) pulses at 2% power. The cell lysate was then cleared by centrifugation at 8000g for 10 min at 4 °C. Following centrifugation, the supernatant was collected and stored at −80 °C until further use. Sample protein concentration was quantified using a Bradford assay with bovine serum albumin as the protein standard. Absorbance at 595 nm was measured using a Spectramax 250 multimode plate reader (Molecular Devices) and processed using SoftmaxPro v4.7.1 software.
Intracellular pSTAT5A (Y694) and pSTAT5B (Y699) levels were quantified from clarified protein samples using an InstantOne ELISA kit (Thermo Fisher) according to the manufacturer’s instructions. Briefly, 50 μl of protein sample (1 mg/ml) were added to wells containing 50 μl antibody cocktail in a 96-well plate and incubated at room temperature for 2 h with shaking (300 rpm). Following incubation, the wells were washed, and the bound antibodies were detected by adding detection regent and incubating the plate for 1 h at room temperature with shaking (300 rpm). Following incubation, stop reagent was added, and the absorbance was read at 450 nm using a UV-VIS spectrophotometer (Molecular Devices, model M2). All experiments were performed in triplicate. Percent pSTAT5 inhibition was calculated from background-subtracted pSTAT5 levels using Equation 2:(2) %inhibition=100×(pSTAT5hGH−pSTAT5PI)/pSTAT5hGH where pSTAT5hGH is the fold-induction of pSTAT5 upon treatment with hGH alone and pSTAT5PI is the fold-induction of pSTAT5 upon co-treatment with hGH and peptide inhibitor.

Consider `CC[C@H](C)[C@H](NC(=O)[C@H](Cc1ccc(O)cc1)NC(C)=O)C(=O)N1CCC[C@H]1C(=O)N[C@@H](CCCCN)C(=O)N[C@@H](CCC(=O)O)C(=O)N[C@@H](CCC(N)=O)C(=O)N[C@@H](CCCCN)C(=O)N[C@@H](Cc1ccc(O)cc1)C(=O)N[C@@H](CO)C(=O)N[C@@H](Cc1ccccc1)C(=O)N[C@@H](CC(C)C)C(=O)N[C@@H](CCC(N)=O)C(=O)N[C@@H](CC(N)=O)C(=O)N1CCC[C@H]1C(=O)N[C@@H](CCC(N)=O)C(=O)N[C@H](C(N)=O)[C@@H](C)O` [S1H], for which the inhibition at 0.05 µM at hGHR [1] (50 nM inhibitor with 2.5 nM hGH, Western blot, compared with hGH alone, read-out: inhibition of hGH-induced pSTAT5) stood at 40%. Further, the “suppression of hGH-mediated pSTAT5” value on hGHR [1] (200 nM S1H with 2.5 nM hGH, Western blot densitometry, n = 3) was found to be 56%. In addition, the inhibition at 0.2 µM at hGHR [2] came to 98.3%.

By inhibition is commonly meant how much of the control response was suppressed.
